Molecular target: T1, human recombinant A3AR (expressed in HEK-293 cells) (Homo sapiens, UniProt P0DMS8)
T1 construct: host or cells: HEK-293 cells
T1 sequence (P0DMS8 1-318): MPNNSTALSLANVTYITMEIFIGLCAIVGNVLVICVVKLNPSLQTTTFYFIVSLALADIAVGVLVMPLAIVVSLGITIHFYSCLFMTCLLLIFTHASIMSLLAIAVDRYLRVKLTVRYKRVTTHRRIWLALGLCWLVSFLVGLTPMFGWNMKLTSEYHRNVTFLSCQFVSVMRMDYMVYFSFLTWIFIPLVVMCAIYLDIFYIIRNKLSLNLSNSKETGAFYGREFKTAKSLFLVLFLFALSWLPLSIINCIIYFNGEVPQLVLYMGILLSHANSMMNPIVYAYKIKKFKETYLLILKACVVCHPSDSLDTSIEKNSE
Test: Adenosine receptors antagonism assay (Eurofins), [125I]-AB-MECA radioligand competition
Type: binding
Settings: [125I]-AB-MECA 0.15 nM, r.t., 120 min; IC50 from dose-response curves; read-out: Potency Class A3AR

CCC(CC)Nc1cc(NCc2ccc(O)cc2)c2nnc(C(C)C)n2n1 [compound 42, 4-[[[6-(1-ethylpropylamino)-3-isopropyl-[1,2,4]triazolo[4,3-b]pyridazin-8-yl]amino]methyl]phenol] and CCC(CC)Nc1cc(NCc2ccncc2)c2nnc(C(C)C)n2n1 [compound 49, N6-(1-ethylpropyl)-3-isopropyl-N8-(4-pyridylmethyl)-[1,2,4]triazolo[4,3-b]pyridazine-6,8-diamine] fall in the same range of IC50: 1 to 10 nM for the first, 1 to 10 nM for the second.

CC(C)c1nnc2c(NCc3ccccc3O)cc(N[C@@H]3CCCOC3)nn12 [compound 43, 2-[[[3-isopropyl-6-[[(3R)-tetrahydropyran-3-yl]amino]-[1,2,4]triazolo[4,3-b]pyridazin-8-yl]amino]methyl]phenol] and CC(C)c1nnc2c(NCc3ccccc3O)cc(NC3CCOCC3)nn12 [compound 44, 2-[[[3-isopropyl-6-(tetrahydropyran-4-ylamino)-[1,2,4]triazolo[4,3-b]pyridazin-8-yl]amino]methyl]phenol] fall in the same range of IC50: 10 to 100 nM for the first, 10 to 100 nM for the second.

Compared with CCC(CC)Nc1cc(Nc2ccccc2)c2nnc(C(C)C)n2n1 [compound 45, N6-(1-ethylpropyl)-3-isopropyl-N8-phenyl-[1,2,4]triazolo[4,3-b]pyridazine-6,8-diamine], CCC(CC)Nc1cc(Nc2cccnc2)c2nnc(C(C)C)n2n1 [compound 47, N6-(1-ethylpropyl)-3-isopropyl-N8-(3-pyridyl)-[1,2,4]triazolo[4,3-b]pyridazine-6,8-diamine] is lower in IC50: 1 to 10 nM for the first, less than 1 nM for the second. The second is the more potent here.

First: CCC(CC)Nc1cc(Nc2ccccn2)c2nnc(C(C)C)n2n1 [compound 46, N6-(1-ethylpropyl)-3-isopropyl-N8-(2-pyridyl)-[1,2,4]triazolo[4,3-b]pyridazine-6,8-diamine]
Second: CCC(CC)Nc1cc(NCc2ccccn2)c2nnc(C(C)C)n2n1 [compound 51, N6-(1-ethylpropyl)-3-isopropyl-N8-(2-pyridylmethyl)-[1,2,4]triazolo[4,3-b]pyridazine-6,8-diamine]
The IC50 of the first is lower: less than 1 nM for the first, 1 to 10 nM for the second.

CCC(CC)Nc1cc(Nc2ccncc2)c2nnc(C(C)C)n2n1 [compound 48, N6-(1-ethylpropyl)-3-isopropyl-N8-(4-pyridyl)-[1,2,4]triazolo[4,3-b]pyridazine-6,8-diamine] and CCC(CC)Nc1cc(NCc2cccnc2)c2nnc(C(C)C)n2n1 [compound 50, N6-(1-ethylpropyl)-3-isopropyl-N8-(3-pyridylmethyl)-[1,2,4]triazolo[4,3-b]pyridazine-6,8-diamine] fall in the same range of IC50: 1 to 10 nM for the first, 1 to 10 nM for the second.

First: CC(C)c1nnc2c(NCc3ccccn3)cc(NC(C)(C)C)nn12 [compound 52, N6-tert-butyl-3-isopropyl-N8-(2-pyridylmethyl)-[1,2,4]triazolo[4,3-b]pyridazine-6,8-diamine]
Second: CC(C)c1nnc2c(NCc3ccccn3)cc(NC3CC(F)(F)C3)nn12 [compound 54, N6-(3,3-difluorocyclobutyl)-3-isopropyl-N8-(2-pyridylmethyl)-[1,2,4]triazolo[4,3-b]pyridazine-6,8-diamine]
The IC50 of the first is lower: 1 to 10 nM for the first, 10 to 100 nM for the second.

First: CC(C)c1nnc2c(NCc3ccccn3)cc(NC3CC4(CCC4)C3)nn12 [compound 53, 3-isopropyl-N8-(2-pyridylmethyl)-N6-spiro[3.3]heptan-2-yl-[1,2,4]triazolo[4,3-b]pyridazine-6,8-diamine]
Second: CC(C)c1nnc2c(NCc3ccccn3)cc(NC3CCC(F)(F)CC3)nn12 [compound 55, N6-(4,4-difluorocyclohexyl)-3-isopropyl-N8-(2-pyridylmethyl)-[1,2,4]triazolo[4,3-b]pyridazine-6,8-diamine]
The IC50 of the first is lower: 1 to 10 nM for the first, 10 to 100 nM for the second. The first is the more potent here.

First: CC(C)c1nnc2c(NCc3ccccn3)cc(NCc3ccccc3)nn12 [compound 56, N6-benzyl-3-isopropyl-N8-(2-pyridylmethyl)-[1,2,4]triazolo[4,3-b]pyridazine-6,8-diamine]
Second: CCC(CC)Nc1cc(NCc2ccccn2)c2nnc(-c3ccccc3)n2n1 [compound 66, N6-(1-ethylpropyl)-3-phenyl-N8-(2-pyridylmethyl)-[1,2,4]triazolo[4,3-b]pyridazine-6,8-diamine]
The IC50 of the first is lower: 1 to 10 nM for the first, 10 to 100 nM for the second.

First: CCC(CC)Nc1cc(NCc2ccccn2)c2nncn2n1 [compound 57, N6-(1-ethylpropyl)-N8-(2-pyridylmethyl)-[1,2,4]triazolo[4,3-b]pyridazine-6,8-diamine]
Second: CCC(CC)Nc1cc(NCc2ccccn2)c2nnc(C)n2n1 [compound 58, N6-(1-ethylpropyl)-3-methyl-N8-(2-pyridylmethyl)-[1,2,4]triazolo[4,3-b]pyridazine-6,8-diamine]
The IC50 of the first is higher: 100 to 1000 nM for the first, 10 to 100 nM for the second.

First: CCc1nnc2c(NCc3ccccn3)cc(NC(CC)CC)nn12 [compound 59, 3-ethyl-N6-(1-ethylpropyl)-N8-(2-pyridylmethyl)-[1,2,4]triazolo[4,3-b]pyridazine-6,8-diamine]
Second: CCCc1nnc2c(NCc3ccccn3)cc(NC(CC)CC)nn12 [compound 60, N6-(1-ethylpropyl)-3-propyl-N8-(2-pyridylmethyl)-[1,2,4]triazolo[4,3-b]pyridazine-6,8-diamine]
The IC50 of the first is lower: 1 to 10 nM for the first, 10 to 100 nM for the second. The first is the more potent here.

Compared with CCC(CC)Nc1cc(NCc2ccccn2)c2nnc(C(C)(C)C)n2n1 [compound 61, 3-tert-butyl-N6-(1-ethylpropyl)-N8-(2-pyridylmethyl)-[1,2,4]triazolo[4,3-b]pyridazine-6,8-diamine], CCC(CC)Nc1cc(NCc2ccccn2)c2nnc(C(C)CC)n2n1 (centres unmarked) [compound 67, N6-(1-ethylpropyl)-N8-(2-pyridylmethyl)-3-sec-butyl-[1,2,4]triazolo[4,3-b]pyridazine-6,8-diamine] is lower in IC50: 10 to 100 nM for the first, 1 to 10 nM for the second. The second is the more potent here.

CCC(CC)Nc1cc(NCc2ccccn2)c2nnc(C3CC3)n2n1 [compound 62, 3-cyclopropyl-N6-(1-ethylpropyl)-N8-(2-pyridylmethyl)-[1,2,4]triazolo[4,3-b]pyridazine-6,8-diamine] and CCC(CC)Nc1cc(NCc2ccccn2)c2nnc(C3CCC3)n2n1 [compound 63, 3-cyclobutyl-N6-(1-ethylpropyl)-N8-(2-pyridylmethyl)-[1,2,4]triazolo[4,3-b]pyridazine-6,8-diamine] fall in the same range of IC50: 1 to 10 nM for the first, 1 to 10 nM for the second.

First: CCC(CC)Nc1cc(NCc2ccccn2)c2nnc(C3CCCC3)n2n1 [compound 64, 3-cyclopentyl-N6-(1-ethylpropyl)-N8-(2-pyridylmethyl)-[1,2,4]triazolo[4,3-b]pyridazine-6,8-diamine]
Second: CCC(CC)Nc1cc(NCc2ccccn2)c2nnc(C3CCCCC3)n2n1 [compound 65, 3-cyclohexyl-N6-(1-ethylpropyl)-N8-(2-pyridylmethyl)-[1,2,4]triazolo[4,3-b]pyridazine-6,8-diamine]
The IC50 of the first is lower: 10 to 100 nM for the first, 100 to 1000 nM for the second.

First: CCC(CC)Nc1cc(NCc2ccccn2)c2nnc(C(CC)CC)n2n1 [compound 68, N6,3-bis(1-ethylpropyl)-N8-(2-pyridylmethyl)-[1,2,4]triazolo[4,3-b]pyridazine-6,8-diamine]
Second: CCC(CC)Nc1cc(NCc2ccccn2)c2nnc(CC(C)C)n2n1 [compound 69, N6-(1-ethylpropyl)-3-isobutyl-N8-(2-pyridylmethyl)-[1,2,4]triazolo[4,3-b]pyridazine-6,8-diamine]
The IC50 of the first is lower: 1 to 10 nM for the first, 10 to 100 nM for the second. The first is the more potent here.

In the case of CCC(CC)Nc1cc(NCc2ccccn2)c2nnc(-c3ccccn3)n2n1 [compound 70, N6-(1-ethylpropyl)-3-(2-pyridyl)-N8-(2-pyridylmethyl)-[1,2,4]triazolo[4,3-b]pyridazine-6,8-diamine], the IC50 is reported as 100 to 1000 nM.
